Results published in paper PMC9907135 (Proceedings of the National Academy of Sciences of the …, 2022).
Bridge positions count the residues as written; N and C are the ends. Square brackets hold non-standard residues; d marks the D form. Peptide text beside a SMILES is read from it. R8 = C=CCCCCCC[C@@](C)(N)C(=O)O; S5 = C=CCCC[C@](C)(N)C(=O)O; Nle = CCCC[C@H](N)C(=O)O

Experiments:
RNF31 UBA domain = RNF31 UBA domain (Homo sapiens, UniProt Q96EP0); assay: biochemical
PD-L1 = PD-L1 (Homo sapiens, UniProt Q9NZQ7); conditions: TR-FRET; n = 3 for FP peptides, n = 2 for BMS-1001
Chain of PD-L1 (Q9NZQ7 18-239): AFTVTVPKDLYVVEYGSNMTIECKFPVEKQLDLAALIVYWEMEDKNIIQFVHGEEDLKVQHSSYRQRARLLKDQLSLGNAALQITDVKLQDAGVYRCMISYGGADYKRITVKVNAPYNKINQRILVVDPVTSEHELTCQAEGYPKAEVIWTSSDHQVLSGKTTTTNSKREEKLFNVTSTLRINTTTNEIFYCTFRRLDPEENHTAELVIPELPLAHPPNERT
PD-L1:PD-1 [1] = target: T1, PD-L1:PD-1 (Homo sapiens, UniProt Q9NZQ7); conditions: competition ELISA; n = 2
Target sequence in this assay (Q9NZQ7 19-238 limits assumed): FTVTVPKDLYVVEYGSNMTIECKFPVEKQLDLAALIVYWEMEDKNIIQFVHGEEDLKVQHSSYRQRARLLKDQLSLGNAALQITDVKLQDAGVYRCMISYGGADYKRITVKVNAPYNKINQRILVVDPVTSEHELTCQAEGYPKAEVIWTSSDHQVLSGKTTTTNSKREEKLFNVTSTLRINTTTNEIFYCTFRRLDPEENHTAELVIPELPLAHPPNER
PD-L1:PD-1 [2] = target: T1, PD-L1:PD-1; conditions: SPR ABA competition, 10 μM compound, 400 nM PD-1
Target sequence in this assay (Q9NZQ7 18-239): as the sequence (Q9NZQ7 18-239) above

Expi293 cells [3] = conditions: luminescence at Tfinal (22 hours) divided by Tinitial, measure of ATP levels, reflective of cell health
Expi293 cells [4] = conditions: percentage of Helicons in cells after treatment and wash; Expi293 cells 1x10^6 cells/mL, 22 hours, 37°C; washed twice with DPBS; MS quantitation, single-point calibration; n=2, mean ± SD

Chain of RNF31 UBA domain (Q96EP0 480-639): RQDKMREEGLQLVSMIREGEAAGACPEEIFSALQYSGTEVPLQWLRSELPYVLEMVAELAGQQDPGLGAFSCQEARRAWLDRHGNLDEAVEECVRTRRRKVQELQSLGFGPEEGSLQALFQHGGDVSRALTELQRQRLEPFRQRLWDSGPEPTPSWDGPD

SMILES: CC[C@H](C)[C@H](NC(=O)[C@H](C)NC(=O)[C@@H]1CSCC(=O)Nc2ccc(cc2)NC(=O)CSC[C@H](NC(=O)[C@H](CCCNC(=N)N)NC(=O)[C@H](CCC(N)=O)NC(=O)[C@H](CCSC)NC(=O)[C@H](C)NC(=O)[C@@H]2CCCN2C(=O)[C@H](CC(=O)O)NC(C)=O)C(=O)N[C@@H](Cc2ccccc2)C(=O)N[C@@H](CO)C(=O)N[C@@H](C)C(=O)N[C@@H](C)C(=O)N[C@@H](C(C)C)C(=O)N[C@@H](Cc2ccc(O)cc2)C(=O)N1)C(=O)N[C@@H](CO)C(N)=O [FP06655]
- koff (RNF31 UBA domain; read-out: RNF31 UBA Binding koff): 0.052 s⁻¹
- kon (RNF31 UBA domain; read-out: RNF31 UBA Binding kon): 1.4e+06 M⁻¹ s⁻¹

SMILES: Cc1cc(CN[C@H](CO)C(=O)O)c(OCc2cccc(C#N)c2)cc1OCc1cccc(-c2ccc3c(c2)OCCO3)c1C [BMS-1001]
- PD-L1 dimerization in solution (PD-L1): clear evidence of PD-L1 dimerization
- Inhibition of PD-L1:PD-1 binding (PD-L1:PD-1 [1]): inhibits PD-L1:PD-1 binding
- Competition with PD-1 for binding to PD-L1 (PD-L1:PD-1 [2]): compete more potently

SMILES: CCCC[C@H](NC(=O)[C@@H](NC(C)=O)[C@@H](C)CC)C(=O)N[C@@H](C)C(=O)N[C@]1(C)CCCCCCC=CCCC[C@@](C)(C(=O)N[C@@H](CCC(N)=O)C(=O)N[C@@H](Cc2ccc(O)cc2)C(=O)N[C@@H](CC(N)=O)C(N)=O)NC(=O)[C@H](Cc2c[nH]c3ccccc23)NC(=O)[C@H](Cc2ccccc2)NC(=O)[C@H](C)NC(=O)[C@H](C)NC(=O)[C@H](CCC(N)=O)NC(=O)[C@H](Cc2ccc(O)cc2)NC1=O [FP08023] (Ac-I[Nle]A[R8]YQAAFW[S5]QYN-NH2; staple 4-11)
- CellTiter-Glo fold change ± SD (Expi293 cells [3]): 1.2 ± 0.03
- Helicon in cells ± SD (%) (Expi293 cells [4]): 3.0 ± 0.3%

SMILES: CC[C@H](C)[C@H](NC(=O)[C@H](Cc1ccc(O)cc1)NC(=O)[C@H](CCC(N)=O)NC(=O)[C@]1(C)CCCC=CCCCCCC[C@@](C)(NC(=O)[C@H](Cc2c[nH]cn2)NC(=O)[C@@H](NC(=O)[C@@H](NC(C)=O)[C@@H](C)CC)[C@@H](C)CC)C(=O)N[C@@H](Cc2ccc(O)cc2)C(=O)N[C@@H](CCC(=O)O)C(=O)N[C@@H](C)C(=O)N[C@@H](C)C(=O)N[C@@H](Cc2ccccc2)C(=O)N[C@@H](Cc2ccccc2)C(=O)N1)C(N)=O [FP08011] (Ac-IIH[R8]YEAAFF[S5]QYI-NH2; staple 4-11)
- CellTiter-Glo fold change ± SD (Expi293 cells [3]): 1.2 ± 0.01
- Helicon in cells ± SD (%) (Expi293 cells [4]): 6.5 ± 0.5%
